From publication PMC10180211, “Stability Analysis of the Asiatic Acid-COX-2 Complex Using 100 ns Molecular Dynamic Simulations and Its Selectivity against COX-2 as a Potential Anti-Inflammatory Candidate” (Molecules, 2023)

Biological target: T1, cyclooxygenase-2 (COX-2) (Ovis aries, UniProt P79208)
T1 construct: gene PTGS2
T1 sequence (P79208 17-603): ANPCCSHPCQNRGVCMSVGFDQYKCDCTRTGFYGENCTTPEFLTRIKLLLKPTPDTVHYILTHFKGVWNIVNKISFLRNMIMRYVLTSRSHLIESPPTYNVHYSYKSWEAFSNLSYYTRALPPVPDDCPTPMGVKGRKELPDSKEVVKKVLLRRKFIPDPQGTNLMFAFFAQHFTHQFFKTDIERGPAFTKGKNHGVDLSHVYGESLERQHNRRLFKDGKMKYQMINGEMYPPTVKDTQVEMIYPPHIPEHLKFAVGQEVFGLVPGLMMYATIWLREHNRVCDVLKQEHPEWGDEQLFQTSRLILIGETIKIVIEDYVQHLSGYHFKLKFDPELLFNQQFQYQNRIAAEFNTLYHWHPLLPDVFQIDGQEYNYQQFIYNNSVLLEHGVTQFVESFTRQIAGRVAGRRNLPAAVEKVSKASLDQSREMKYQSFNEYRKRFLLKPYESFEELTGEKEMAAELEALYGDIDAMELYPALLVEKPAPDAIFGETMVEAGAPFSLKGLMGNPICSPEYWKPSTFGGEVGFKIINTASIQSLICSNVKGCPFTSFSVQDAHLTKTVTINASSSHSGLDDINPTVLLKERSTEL
Test: colorimetric COX inhibitor screening assay (kit […]; TMPD oxidation at […] nm) with ovine COX-2
Format: biochemical

C[C@H]1[C@H](C)CC[C@]2(C(=O)O)CC[C@]3(C)C(=CC[C@@H]4[C@@]5(C)C[C@@H](O)[C@H](O)[C@@](C)(CO)[C@@H]5CC[C@]43C)[C@H]12 [asiatic acid, 2,3,23-trihydroxy-urs-12-ene-28-oic-acid] gave an IC50 of 120 µM.
